# Results from paper PMC3141555, “Neuroprotective effect of a new DJ-1-binding compound against neurodegeneration in Parkinson's disease and stroke model rats” (2011).
# T1: DJ-1 (Homo sapiens, UniProt Q99497)
# T1 construct: gene PARK7; recombinant DJ-1
# T1 sequence (Q99497 2-189): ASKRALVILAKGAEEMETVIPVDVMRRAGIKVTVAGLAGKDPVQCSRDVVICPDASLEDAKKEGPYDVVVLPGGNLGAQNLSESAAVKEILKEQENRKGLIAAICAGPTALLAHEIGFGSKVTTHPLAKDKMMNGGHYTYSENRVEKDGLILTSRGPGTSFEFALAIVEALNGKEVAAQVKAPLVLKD
# T2: DJ-1 (human (endogenous in SH-SY5Y)), Q99497
# T2 chain: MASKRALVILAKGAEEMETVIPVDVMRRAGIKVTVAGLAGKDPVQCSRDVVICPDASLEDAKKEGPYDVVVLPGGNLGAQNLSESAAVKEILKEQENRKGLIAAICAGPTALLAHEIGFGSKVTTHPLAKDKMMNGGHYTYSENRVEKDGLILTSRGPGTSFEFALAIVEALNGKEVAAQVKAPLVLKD
# B1: DJ-1, Q99497 1-189 (natural protein)
# chain: T2 chain
# Legend:
# DJ-1 = biological target: T1, DJ-1; assay: quartz crystal microbalance (compound fixed on sensor chip, recombinant DJ-1 applied); format: binding
# [1] = biological target: T2, DJ-1 (human (endogenous in SH-SY5Y)), …; assay: cross-linking; SH-SY5Y cells incubated with 1 uM compound-23 or compound-B for 20 hours, treated with various amounts of H2O2 for 3 hours, then 0.5 mM DSS (or DMSO) for 30 min; extracts analysed by Western blotting with an anti-DJ-1 antibody; details: remark: other sources report otherwise
Molecule,Kd (DJ-1) [nM],stoichiometry N [1]
"COc1cc(C(=O)Nc2ccc(-c3cn4cccc(C)c4n3)cc2)cc(OC)c1OC [compound-23, N-[4-(8-methyl(4-hydroimidazo[1,2-a]pyridin-2-yl))phenyl](3,4,5-trimethoxyphenyl)carboxamide]",103,–
B1,–,2
